Here are results for 14 molecules from US9434724B2, “Quinuclidines for modulating alpha 7 activity” (priority 2014, dated 2016).

A short description of data set [1]: Metabolic stability assay in human liver microsomes (HLM). It is filed as in vitro ADME. The conditions noted are these: 1 μM. The procedure:
(§1) Protocol 1: Studies were carried out in human and rat liver microsomes (“HLM” and “RLM,” respectively). Human and rat liver microsomes were purchased from BD Gentest. DMSO stocks were prepared for the test compounds. Aliquots of the DMSO solutions were diluted to 0.5 mM by acetonitrile, then further diluted by liver microsomes/buffer to 1.5 μM. 30 μL of 1.5 μM solutions were mixed with 15 μL of 6 mM NADPH, which had been pre-warmed to 37° C., at a final test compound concentration of 1 μM. The plates were kept in a 37° C. water bath for the duration of the experiment. At each time point (0, 5, 15, 30, 45 minutes), 135 μL of acetonitrile was added into corresponding wells. After the final time point was sampled, the plates were shaken at a vibrator (IKA, MTS 2/4) for 10 min (600 rpm/min) and then centrifuged at 5594 g for 15 min (Thermo Multifuge×3R). Aliquots of the supernatant were removed, diluted 1:1 into distilled water, and analyzed by LC-MS/MS. The peak area response ratio to internal standard (PARR) of the compounds at 5, 15, 30, 45 minutes was compared to the PARR at time 0 to determine the percent of test compound remaining at each time point. Half-lives were calculated using Excel software, fitting to a single-phase exponential decay equation.
(§2) Protocol 2: Studies were carried out in human and rat liver microsomes. Buffer solutions were prepared as follows: Buffer A: 1.0 L of 0.1 M monobasic Potassium Phosphate buffer containing 1.0 mM EDTA; Buffer B: 1.0 L of 0.1 M Dibasic Potassium Phosphate buffer containing 1.0 mM EDTA; Buffer C: 0.1 M Potassium Phosphate buffer, 1.0 mM EDTA, pH 7.4 by titrating 700 mL of buffer B with buffer A while monitoring with a pH meter.
(§3) Reference compound (Ketanserin) and test compound spiking solutions were prepared as follows: 500 μM spiking solution: add 10 μL of 10 mM DMSO stock solution into 190 μL ACN; 1.5 μM spiking solution in microsomes (0.75 mg/mL): add 1.5 μL of 500 μM spiking solution and 18.75 μL of 20 mg/mL liver microsomes into 479.75 μL of Buffer C.
(§4) NADPH stock solution (6 mM) was prepared by dissolving NADPH into buffer C.
(§5) Assay procedure: 30 μL of 1.5 μM spiking solution containing 0.75 mg/mL microsomes solution was dispensed to the wells designated for […]. The plate was pre-incubated at 37° C. for 10 minutes. 15 μL of NADPH stock solution (6 mM) was added to the wells designated as Time 45, and the timer was started. At 30 mM, 15 mM, and 5 mM, 15 μL NADPH stock solution (6 mM) was added to the wells, respectively. At the end of incubation (0 mM), 135 μL of ACN containing IS was added to all the wells. Then 15 μL of NADPH stock solution (6 mM) was added to the wells designated as Time 0. After quenching, the reaction mixtures were centrifuged at 3220 g for […]. Following centrifugation, 50 μL of the supernatant was transferred from each well into a 96-well sample plate containing 50 μL of ultra-pure water (Millipore) for LC/MS analysis. The peak area response (PARR) ratio to internal standard of the compounds at 5, 15, 30, and 45 minutes was compared to the PARR at time 0 to determine the percent of test compound remaining at each time point. Half-lives were calculated using Excel software, fitting to a single-phase exponential decay equation.
A general note: Microsomes from liver hold many membrane-bound enzymes, among them those of drug oxidation.

Another data set is described as follows: Human plasma stability. In kind it is in vitro ADME. The conditions noted are these: plasma; for % Remaining @ 2 h: 5 μM. The procedure: Protocol 1: Studies were carried out in human plasma. All plasma was obtained from Bioreclamation and collected on sodium heparin. Plasma was adjusted to pH 7.4. A DMSO stock was first prepared for the test compound. An aliquot of the DMSO solution was dosed into 1 mL of plasma, which had been pre-warmed to 37° C., at a final test compound concentration of 1 μM. The vials were kept in a benchtop Thermomixer® for the duration of the experiment. Aliquots (100 μL) were taken at each time point (0, 15, 30, 60, and 120 minutes) and added to 96-well plates which had been pre-filled with 300 μL of acetonitrile. Samples were stored at 4° C. until the end of the experiment. After the final time point was sampled, the plate was mixed and then centrifuged at 3,000 rpm for 10 minutes. Aliquots of the supernatant were removed, diluted 1:1 into distilled water, and analyzed by LC-MS/MS. The peak area response ratio to internal standard (PARR) of the compound at 15, 30, 60 and 120 minutes was compared to the PARR at time 0 to determine the percent of test compound remaining at each time point. Half-lives were calculated using GraphPad software, fitting to a single-phase exponential decay equation.
Protocol 2: Studies were carried out in plasma. Plasma was prepared under approval of IRB and IACUC on sodium heparin. The pH of plasma was monitored and used within the range of pH 7.4 to pH 8.0. DMSO stocks were prepared for the test compounds. Aliquots of the DMSO solutions were diluted to 0.05 mM by 0.05 mM Sodium phosphate buffer with 0.5% BSA. Then 10 μL of 0.05 mM solutions were dosed into 90 μL of plasma in duplicates (n=2), which had been pre-warmed to 37° C., at a final test compound concentration of 5 μM. The plates were kept in a 37° C. water bath for the duration of the experiment. At each time point (0, 5, 15, 30, 45, 60, and 120 minutes), 400 μL of acetonitrile was added into corresponding wells. After the final time point was sampled, the plates were shaken at the vibrator (IKA, MTS 2/4) for 10 min (600 rpm/min) and then centrifuged at 5594 g for 15 min (Thermo Multifuge×3R). Aliquots of the supernatant were removed, diluted 1:1 into distilled water, and analyzed by LC-MS/MS. The peak area response ratio to internal standard (PARR) of the compounds at 5, 15, 30, 45, 60, and 120 minutes was compared to the PARR at time 0 to determine the percent of test compound remaining at each time point. Half-lives were calculated using Excel software, fitting to a single-phase exponential decay equation.

The nature of data set [2]: Metabolic stability assay in rat liver microsomes (RLM). It is filed as in vitro ADME. The conditions noted are these: 1 μM. The protocol: as §1, §2, §3, §4, §5
The target of data set [3] is rat brain nicotinic receptor (α7 NAChR) (Rattus norvegicus (Rat), UniProt Q05941). In kind it is binding.
Setting [4] is: Protocol No. 1, human liver microsomes.
The mark [5] stands for this setting: Protocol No. 1, rat liver microsomes.

Chain of rat brain nicotinic receptor (α7 NAChR) (Q05941 23-502 limits assumed): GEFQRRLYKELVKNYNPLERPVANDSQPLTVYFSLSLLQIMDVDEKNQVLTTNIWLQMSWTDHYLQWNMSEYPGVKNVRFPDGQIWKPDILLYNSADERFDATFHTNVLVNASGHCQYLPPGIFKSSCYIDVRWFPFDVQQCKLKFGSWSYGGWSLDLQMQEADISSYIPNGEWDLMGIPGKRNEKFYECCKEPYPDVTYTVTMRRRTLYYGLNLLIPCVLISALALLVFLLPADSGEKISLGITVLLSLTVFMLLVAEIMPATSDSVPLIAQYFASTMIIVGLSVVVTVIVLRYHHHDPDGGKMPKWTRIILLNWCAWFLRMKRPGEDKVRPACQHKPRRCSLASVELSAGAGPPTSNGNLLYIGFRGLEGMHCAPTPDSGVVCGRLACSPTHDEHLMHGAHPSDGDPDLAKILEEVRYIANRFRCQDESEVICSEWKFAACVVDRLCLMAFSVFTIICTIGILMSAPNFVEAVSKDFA

For orientation: IC50 means the concentration needed to halve the response being measured. A high value points to weaker potency. The Ki is the equilibrium dissociation constant of an inhibitor or competing ligand from its target. The molecule `Cl.O=C(OCC12CCN(CC1)CC2)c1c[nH]c2cc(Cl)cc(Cl)c12` [Compound 71, quinuclidin-4-ylmethyl 4,6-dichloro-1H-indole-3-carboxylate hydrochloride] returned an HLM in data set [1] (setting [4]) of 6.768 mL/min/kg. In addition, the “% Remaining @ 2 h” value in the data set “Human plasma stability” (Protocol No. 2, 37° C.) came out at 72.03%. In data set [2] (setting [5]), this molecule showed an RLM of 121.175 mL/min/kg. In data set [3], the IC50 came to 457 nM and the affinity, expressed as Ki, was 394 nM.

In data set [1] (human, microsomes), `COc1cc(C#N)cc2[nH]cc(C(=O)OCC34CCN(CC3)CC4)c12` [Compound 77, quinuclidin-4-ylmethyl 6-cyano-4-methoxy-1H-indole-3-carboxylate] had an HLM of 10.4452 mL/min/kg. Also, the “% Remaining @ 2 h” value in the data set “Human plasma stability” (human, 2 h) is recorded as 71.03%. This molecule also came in with an RLM in data set [2] (rat, microsomes) of 87.668 mL/min/kg. In data set [3], this molecule gave an IC50 of 423 nM and a Ki of 363 nM.

On to `COc1cc2c(C(=O)OCC34CCN(CC3)CC4)c[nH]c2cc1Cl` [Compound 69, quinuclidin-4-ylmethyl 6-chloro-5-methoxy-1H-indole-3-carboxylate], for which, in data set [1] (human, microsomes), the HLM came out at 8.8 mL/min/kg. The “% Remaining @ 2 h” value in “Human plasma stability” (human, 2 h) was 78.66%. For the same molecule, in data set [2] (rat, microsomes), the RLM is 238.87 mL/min/kg. Besides, in data set [3], the 50% inhibitory concentration (IC50) turned out to be 394 nM and the inhibition constant Ki was determined as 340 nM.

Take `O=C(OCC12CCN(CC1)CC2)c1c[nH]c2ccc3c(c12)OCCO3` [Compound 81, quinuclidin-4-ylmethyl 2,3-dihydro-7H-[1,4]dioxino[2,3-e]indole-9-carboxylate]: the HLM in data set [1] (human, microsomes) was 5.94 mL/min/kg. Further, the “% Remaining @ 2 h” value in “Human plasma stability” (human, 2 h) was determined as 70.89%. For the same molecule, the RLM in data set [2] (rat, microsomes) is given as 75.96 mL/min/kg.

The molecule `COc1c(C)ccc2[nH]cc(C(=O)OCC34CCN(CC3)CC4)c12` [Compound 75, quinuclidin-4-ylmethyl 4-methoxy-5-methyl-1H-indole-3-carboxylate] returned an HLM in data set [1] (human, microsomes) of 5.749 mL/min/kg. Moreover, the T1/2 entry in the data set “Human plasma stability” (human) was “∞”. Moreover, in “Human plasma stability” (human, 2 h), the “% Remaining @ 2 h” value amounted to 120.98%. Further, the RLM in data set [2] (rat, microsomes) is recorded as 474.267 mL/min/kg. In data set [3], this molecule registered a half-inhibitory concentration (IC50) of 52.5 nM and an inhibition constant Ki of 45 nM.

As for `Cc1cc2[nH]cc(C(=O)OCC34CCN(CC3)CC4)c2cc1Cl.Cl` [Compound 66, quinuclidin-4-ylmethyl 5-chloro-6-methyl-1H-indole-3-carboxylate hydrochloride], the HLM in data set [1] (setting [4]) was 0 mL/min/kg. Also, in the data set “Human plasma stability” (Protocol No. 2, 37° C.), the “% Remaining @ 2 h” value stood at 71.77%. The molecule also displayed an RLM in data set [2] (setting [5]) of 934.845 mL/min/kg. In data set [3], this molecule showed a half-maximal inhibitory concentration (IC50) of 1190 nM and a Ki of 1010 nM.

In turn, `Cl.O=C(OCC12CCN(CC1)CC2)c1c[nH]c2cc(F)cc(Cl)c12` [Compound 64, quinuclidin-4-ylmethyl 4-chloro-6-fluoro-1H-indole-3-carboxylate hydrochloride] gave an HLM in data set [1] (setting [4]) of 2.7474 mL/min/kg. Moreover, in the data set “Human plasma stability” (Protocol No. 2, 37° C.), the “% Remaining @ 2 h” value came out at 76.61%. The same molecule returned an RLM in data set [2] (setting [5]) of 77.4932 mL/min/kg. In data set [3], inhibition was half-maximal at 337 nM (IC50) and the inhibitory constant (Ki) worked out at 291 nM.

Molecule `COc1cc2c(C(=O)OCC34CCN(CC3)CC4)c[nH]c2cc1C.Cl` [Compound 79, quinuclidin-4-ylmethyl 5-methoxy-6-methyl-1H-indole-3-carboxylate hydrochloride] returned an HLM in data set [1] (setting [4]) of 10.72 mL/min/kg. In the data set “Human plasma stability” (Protocol No. 2, 37° C.), the “% Remaining @ 2 h” value came to 56.12%. Moreover, the RLM in data set [2] (setting [5]) worked out at 576.18 mL/min/kg.

Take `Cc1cc2c(C(=O)OCC34CCN(CC3)CC4)c[nH]c2cc1Cl` [Compound 78, quinuclidin-4-ylmethyl 6-chloro-5-methyl-1H-indole-3-carboxylate]: the HLM in data set [1] (human, microsomes) was 0 mL/min/kg. Besides, the “% Remaining @ 2 h” value in “Human plasma stability” (human, 2 h) is listed as 77.57%. The molecule also returned an RLM in data set [2] (rat, microsomes) of 679.777 mL/min/kg. In data set [3], half-maximal inhibition (IC50) required 1130 nM and the affinity corresponds to a Ki of 970 nM.

In data set [1] (human, microsomes), `O=C(OCC12CCN(CC1)CC2)c1c[nH]c2ccc(F)c(Br)c12` [Compound 67, quinuclidin-4-ylmethyl 4-bromo-5-fluoro-1H-indole-3-carboxylate] returned an HLM of 6.65 mL/min/kg. Besides, the “% Remaining @ 2 h” value in the data set “Human plasma stability” (human, 2 h) is 98.92%. The RLM in data set [2] (rat, microsomes) was 594.86 mL/min/kg. Besides, in data set [3], the IC50 was determined as 201 nM and the affinity corresponds to a Ki of 173 nM.

Turning to `COc1cc2c(C(=O)OCC34CCN(CC3)CC4)c[nH]c2cc1C#N` [Compound 76, quinuclidin-4-ylmethyl 6-cyano-5-methoxy-1H-indole-3-carboxylate], in data set [1] (human, microsomes), the HLM was 20.5897 mL/min/kg. Moreover, the “% Remaining @ 2 h” value in “Human plasma stability” (human, 2 h) stood at 72.92%. The molecule also gave an RLM in data set [2] (rat, microsomes) of 41.0701 mL/min/kg. Besides, in data set [3], the IC50 turned out to be 643 nM and the Ki is 552 nM.

Turning to `Cc1ccc2[nH]cc(C(=O)OCC34CCN(CC3)CC4)c2c1C` [Compound 70, quinuclidin-4-ylmethyl 4,5-dimethyl-1H-indole-3-carboxylate], the HLM in data set [1] (human, microsomes) is listed as 0 mL/min/kg. Moreover, the “% Remaining @ 2 h” value in the data set “Human plasma stability” (human, 2 h) is reported as 71.56%. In addition, the RLM in data set [2] (rat, microsomes) was determined as 1349.06 mL/min/kg. Moreover, in data set [3], the half-maximal inhibitory concentration (IC50) is 315 nM and the Ki was found to be 272 nM.

Take `O=C(OCC12CCN(CC1)CC2)c1c[nH]c2cccc(C3CC3)c12` [Compound 61, Quinuclidin-4-ylmethyl 4-cyclopropyl-1H-indole-3-carboxylate]: the HLM in data set [1] (human, microsomes) was 10.81 mL/min/kg. The “% Remaining @ 2 h” value in “Human plasma stability” (human, 2 h) was determined as 93.59%. The molecule further returned an RLM in data set [2] (rat, microsomes) of 434.65 mL/min/kg. In data set [3], this molecule showed a 50% inhibitory concentration (IC50) of 1890 nM and a Ki of 1620 nM.

Molecule `COc1cc2c(C(=O)OCC34CCN(CC3)CC4)c[nH]c2cc1O` [Compound 86, quinuclidin-4-ylmethyl 6-hydroxy-5-methoxy-1H-indole-3-carboxylate] showed an HLM in data set [1] (human, microsomes) of 7.35 mL/min/kg. Moreover, in “Human plasma stability” (human, 2 h), the “% Remaining @ 2 h” value was found to be 22.88%. In data set [2] (rat, microsomes), this molecule came in with an RLM of 17.38 mL/min/kg.
